The results in this text go back to ChEMBL document CHEMBL4665676, “Matrix Metalloproteinases as New Targets in Alzheimer's Disease: Opportunities and Challenges” (J Med Chem, 2020).

The term IC50 denotes the concentration needed to halve the response being measured.

Assay [1] addresses T1, Matrix metalloproteinase-14 (Homo sapiens, UniProt P50281). The assay can be described thus: Inhibition of MT1-MMP catalytic domain (unknown origin) expressed in Escherichia coli using 7-methoxycoumarin-4-yl)acetyl-Pro-Leu-Gly-Leu-(3-[2,4-dinitrophenyl]-L-2,3-diaminopropionyl)-Ala-Arg-NH2 as substrate incubated for 30 mins by fluorescence method.
For assay [2], the target named is Macrophage metalloelastase (Homo sapiens, UniProt P39900). In words: Inhibition of recombinant human MMP12 using Mca-Pro-Leu-Gly-Leu-Dpa-Ala-Arg-NH2 as substrate by […] method.
Macrophage metalloelastase, sequence (P39900 whole entry): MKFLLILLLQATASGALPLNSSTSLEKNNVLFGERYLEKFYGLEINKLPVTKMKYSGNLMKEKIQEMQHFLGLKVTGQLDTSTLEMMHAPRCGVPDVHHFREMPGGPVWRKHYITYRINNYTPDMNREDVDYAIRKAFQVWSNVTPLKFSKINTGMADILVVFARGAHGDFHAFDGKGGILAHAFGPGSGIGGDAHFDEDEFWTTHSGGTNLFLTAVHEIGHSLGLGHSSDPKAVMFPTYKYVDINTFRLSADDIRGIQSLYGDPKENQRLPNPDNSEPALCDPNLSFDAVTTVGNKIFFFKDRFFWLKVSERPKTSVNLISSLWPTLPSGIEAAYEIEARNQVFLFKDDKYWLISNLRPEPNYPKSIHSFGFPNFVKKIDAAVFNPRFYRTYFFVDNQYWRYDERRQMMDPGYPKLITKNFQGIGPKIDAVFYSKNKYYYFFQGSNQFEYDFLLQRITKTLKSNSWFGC
Assay [3] deals with T2, Matrix metalloproteinase-9 (Homo sapiens, UniProt P14780). The assay can be described thus: Inhibition of human MMP9 measured at 5 mins interval for 1 hr by fluorescence method.
T2 sequence (P14780 whole entry): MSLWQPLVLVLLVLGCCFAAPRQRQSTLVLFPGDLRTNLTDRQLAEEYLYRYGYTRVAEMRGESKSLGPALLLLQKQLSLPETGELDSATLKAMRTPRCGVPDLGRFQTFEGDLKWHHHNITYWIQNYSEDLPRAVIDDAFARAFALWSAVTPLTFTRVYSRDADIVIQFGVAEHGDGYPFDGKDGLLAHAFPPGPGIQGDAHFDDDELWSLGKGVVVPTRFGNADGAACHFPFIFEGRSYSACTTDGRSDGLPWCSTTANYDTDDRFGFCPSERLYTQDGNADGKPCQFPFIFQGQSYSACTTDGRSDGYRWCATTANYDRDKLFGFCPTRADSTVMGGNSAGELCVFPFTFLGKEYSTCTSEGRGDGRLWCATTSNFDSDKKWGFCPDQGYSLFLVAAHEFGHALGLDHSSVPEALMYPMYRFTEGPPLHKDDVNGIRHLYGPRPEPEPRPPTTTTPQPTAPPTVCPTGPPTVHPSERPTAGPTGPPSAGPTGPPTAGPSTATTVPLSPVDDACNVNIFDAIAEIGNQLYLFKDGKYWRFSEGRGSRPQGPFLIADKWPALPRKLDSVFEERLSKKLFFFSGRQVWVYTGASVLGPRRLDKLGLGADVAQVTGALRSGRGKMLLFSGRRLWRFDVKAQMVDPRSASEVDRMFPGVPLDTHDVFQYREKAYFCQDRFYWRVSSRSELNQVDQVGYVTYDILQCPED
For assay [4], the target named is T3, 72 kDa type IV collagenase (Homo sapiens, UniProt P08253). In words: Inhibition of human MMP2 measured at 5 mins interval for 1 hr by fluorescence method.
T3 sequence (P08253 whole entry): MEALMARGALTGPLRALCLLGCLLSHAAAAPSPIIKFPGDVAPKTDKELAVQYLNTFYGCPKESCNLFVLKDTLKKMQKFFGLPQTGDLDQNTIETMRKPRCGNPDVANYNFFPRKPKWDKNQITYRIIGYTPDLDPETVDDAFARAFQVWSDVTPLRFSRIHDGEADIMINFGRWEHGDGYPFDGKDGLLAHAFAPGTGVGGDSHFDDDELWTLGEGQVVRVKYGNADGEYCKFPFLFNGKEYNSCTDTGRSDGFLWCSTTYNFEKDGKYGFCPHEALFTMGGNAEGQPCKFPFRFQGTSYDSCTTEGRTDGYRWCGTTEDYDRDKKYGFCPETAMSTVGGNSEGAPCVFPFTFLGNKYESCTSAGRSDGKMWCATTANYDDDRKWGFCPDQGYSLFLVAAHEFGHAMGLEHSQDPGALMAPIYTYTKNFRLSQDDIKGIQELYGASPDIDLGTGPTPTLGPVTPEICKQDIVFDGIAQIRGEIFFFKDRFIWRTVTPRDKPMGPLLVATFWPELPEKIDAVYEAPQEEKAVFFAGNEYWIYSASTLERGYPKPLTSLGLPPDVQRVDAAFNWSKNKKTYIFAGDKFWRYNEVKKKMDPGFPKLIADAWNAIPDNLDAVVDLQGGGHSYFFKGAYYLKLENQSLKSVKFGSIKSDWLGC
Assay [5] has as its target T3, 72 kDa type IV collagenase. In words: Inhibition of MMP2 (unknown origin) using 3163v as substrate preincubated for 15 mins followed by substrate addition and measured after 40 mins by fluorometric method.
For assay [6], the target named is T1, Matrix metalloproteinase-14. The assay can be described thus: Inhibition of human MT1-MMP using 3163v as substrate preincubated for 15 mins followed by substrate addition and measured after 40 mins by fluorometric method.
The next assay deals with Stromelysin-1 (Homo sapiens, UniProt P08254). The assay can be described thus: Inhibition of MMP3 (unknown origin) using 3168v as substrate preincubated for 15 mins followed by substrate addition and measured after 40 mins by fluorometric method.
Stromelysin-1, sequence (P08254 whole entry): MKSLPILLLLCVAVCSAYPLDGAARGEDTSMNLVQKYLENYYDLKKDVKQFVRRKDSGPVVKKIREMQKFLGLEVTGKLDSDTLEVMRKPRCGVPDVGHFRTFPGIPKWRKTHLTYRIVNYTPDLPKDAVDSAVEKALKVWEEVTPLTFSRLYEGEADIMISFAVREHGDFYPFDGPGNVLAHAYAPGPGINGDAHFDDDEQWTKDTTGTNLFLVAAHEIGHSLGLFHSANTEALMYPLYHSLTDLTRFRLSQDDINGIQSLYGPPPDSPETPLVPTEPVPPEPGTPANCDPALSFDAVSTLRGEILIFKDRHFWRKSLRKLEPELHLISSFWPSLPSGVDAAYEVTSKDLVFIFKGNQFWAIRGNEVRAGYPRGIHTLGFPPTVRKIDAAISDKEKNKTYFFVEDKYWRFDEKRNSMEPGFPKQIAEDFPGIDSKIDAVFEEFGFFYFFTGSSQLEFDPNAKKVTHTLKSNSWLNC
Another assay addresses T4, Matrilysin (Homo sapiens, UniProt P09237).
T4 sequence (P09237 whole entry): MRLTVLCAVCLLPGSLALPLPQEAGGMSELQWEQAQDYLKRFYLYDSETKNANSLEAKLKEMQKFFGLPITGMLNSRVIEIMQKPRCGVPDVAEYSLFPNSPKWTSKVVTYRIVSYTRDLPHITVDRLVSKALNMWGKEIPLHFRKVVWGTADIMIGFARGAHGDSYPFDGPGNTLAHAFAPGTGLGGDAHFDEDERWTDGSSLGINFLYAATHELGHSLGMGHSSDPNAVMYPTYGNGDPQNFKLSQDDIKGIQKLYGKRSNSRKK
In words: Inhibition of human MMP7 using 3163v as substrate preincubated for 15 mins followed by substrate addition and measured after 40 mins by fluorometric method.

In assay [7] the target is T2, Matrix metalloproteinase-9. The assay can be described thus: Inhibition of human MMP9 using 3163v as substrate preincubated for 15 mins followed by substrate addition and measured after 40 mins by fluorometric method.

Peptide text beside a SMILES is read from it.

As for `CCCC(C)NC(=O)c1ccc(Cl)c(Cl)c1` (centres undefined), the IC50 in [1] is > 100000 nM.

With `NC(=O)[C@H](CCC(=O)O)NC(=O)c1ccc(-c2cc(-c3ccccc3)cs2)cc1`, the IC50 in assay [2] stood at 2.5 nM.

With `CCCCCC(=O)N1CC(F)(F)C[C@@H]1C(=O)N(C)[C@H](C(=O)N[C@@H](CCNC(=O)c1ccccc1)C(=O)NO)[C@@H](C)CC`, the IC50 in assay [3] turned out to be 310 nM; in [4], 656 nM.

Turning to `CC[C@H](C)[C@H](N)C(=O)N[C@@H](CO)C(=O)N[C@@H](Cc1ccc(O)cc1)C(=O)NCC(=O)N[C@@H](CC(N)=O)C(=O)N[C@@H](CC(=O)O)C(=O)N[C@@H](C)C(=O)N[C@@H](CC(C)C)C(=O)N[C@@H](CCSC)C(=O)N1CCC[C@H]1C(=O)O` (H-ISYGNDALMP-OH), the IC50 is 30 nM in assay [5]; 2000 nM in [6]; > 10000 nM against Stromelysin-1; > 10000 nM at Matrilysin; > 10000 nM in [7].
